Positions count from the first letter of the chain named. Like-named read-outs stand apart in the source and are kept apart here.
How the values were obtained:
[1] = biological target: E. indica EPSPS Pro106Leu (P106L) mutant, recombinant expressed in E. coli (Eleusine indica, UniProt Q95AK0, P107L); assay: biochemical; type: binding
Experimental: (§1) Target EPSPS genes with different mutations were amplified through PCR using primers (Supplementary Table S4) and the synthesised cDNA, then cloned into the BamHI and HindIII cleavage sites of the pET-28a expression vector (New England Biolabs Inc., Ipswich, MA, USA). After DNA sequencing, the pET-28a plasmid (Thermo Fisher Scientific Inc., Waltham MA, USA) containing the target genes was transformed into BL21 (DE3) cells (Thermo Fisher Scientific Inc.). Selected clones were cultured in Luria-Bertani medium. Cells containing target genes that had grown to an OD600 of 0.5 were induced with […] IPTG (0487; Amresco LLC, Solon, OH, USA) at 37 °C for 4 h. The cells were then pelleted through centrifugation at 10,000× g for 10 min and resuspended in 50 mM Tris-HCl and 150 mM NaCl, pH 7.4 (buffer A). The suspension was sonicated and centrifuged at 12,000× g for 30 min, the supernatant was filtered through a 0.22 µm membrane and passed through a HiTrap His column (10318950; Cytiva, Global Life Sciences Solutions USA, LLC., Marlborough, MA, USA). Target proteins were eluted with 50 mM Tris-HCl, 150 mM NaCl, 500 mM imidazole, pH 7.4 (buffer B), resolved through SDS-PAGE, and identified through MALDI-TOF mass spectrometry. Target protein concentrations were determined using the Bradford method (500-0001) with Dye Reagent (both from Bio-Rad Laboratories Inc., Hercules, CA, USA).
(§2) To prevent primary amines reducing the biotinylation ratio, the EPSPS and mutations were exchanged with PBS buffer using a PD10 desalting column (17085101; Cytiva, Global Life Sciences Solutions USA, LLC.) as described by the manufacturer. The proteins were then concentrated using an ultrafilter (Merck KGaA, Darmstadt, Germany), then the concentrations were determined, as described above. The proteins were biotinylated using the EZ-Link™ Sulfo-NHS-LC-biotinylation kit (21435; Thermo Fisher Scientific Inc.) as described by the manufacturer. A mixture of protein and sulfo-NHS-LC-biotin at a molar ratio of 1:5 was incubated at 4 °C for 16 h, then free biotin molecules were removed using a PD10 desalting column and biotinylated protein concentrations were measured using the Bradford method.
(§3) We used a ForteBio Octet 96 with high-capacity Super Streptavidin (SSA) biosensors (18-5057; Sartorius Stedim Biotech GmbH, Göttingen, Germany) to study the protein-small molecule binding, and to derive the relevant kinetic data, as well as the affinity constants. The SSA sensors were activated in 50 mM HEPES buffer (pH 7.5) containing 0.02% Tween 20 (v/v) for 10 min, then biotinylated proteins were loaded onto them online for 2 min. Thereafter, the sensors were quenched with 2 μg mL^−1 of biocytin (B1592 Thermo Fisher Scientific Inc.) for 60 s. […] To obtain accurate interaction kinetics, a reference well (containing only buffer) and a reference biosensor were included in the assay for double subtraction analysis.
(§4) Data for protein-small molecule binding studies and curve fitting were analysed using ForteBio Data Analysis Software v. 9.0. Dissociation constants (KD) indicating binding affinity for protein-small molecules were derived by determining Kon and Koff (association and disassociation rate constants, respectively); KD = Koff/Kon.

[2] = biological target: E. indica EPSPS Thr102Ile + Pro106Ser (TIPS) mutant, recombinant expressed in E. coli (Eleusine indica, UniProt Q95AK0, P107S/T103I); assay: biochemical; type: binding
Experimental: as §1, §2, §3, §4

[3] = biological target: E. indica EPSPS Pro106Ser (P106S) mutant, recombinant expressed in E. coli (Eleusine indica, UniProt Q95AK0, P107S); assay: biochemical; type: binding
Experimental: as §1, §2, §3, §4

wild type (WT) E. indica = assay: Shikimate accumulation assay, WT population; type: in vivo, Eleusine indica; conditions: 1800 g a.e. ha^−1 (7.1 mM) glyphosate, seven DAT
Experimental: Leaf tissue samples collected on 1, 3, 5, and 7 DAT were finely ground in liquid nitrogen, added to 1.0 mL of 0.25 mol L^−1 cold HCl, and centrifuged at 12,000 rpm for 30 min. Supernatants (0.2 mL) were incubated with 2 mL of 1% periodic acid for 3 h at room temperature. Thereafter, 2 mL of 1 mol L^−1 NaOH and 1.2 mL of 0.1 mol L^−1 glycine were added, then the optical density of 0.2 mL/well was determined in 96-well plates at 380 nm using a Tecan Infinite 200 Pro plate reader (Tecan Group Ltd., Männedorf, Switzerland). The results for all samples were compared with a standard curve of 0.1–400.0 μg shikimate and are expressed as μg of shikimate g^−1 fresh tissue. This experiment was repeated twice.

[4] = test system: E. indica LL population (homozygous P106L in EPSPS); assay: Whole-plant dose-response assay, LL population; type: in vivo, Eleusine indica; conditions: glyphosate alone, fresh weight at 21 DAT, value ± SE
Experimental: (§5) Plants with homozygous mutations Pro106Ser (P106S), Pro106Leu (P106L), Thr102Ile + Pro106Ser (TIPS), and WT were screened from a population with a similar background, as we previously described. […] Plants with the same confirmed genotype were cultured (bulk in isolation) and the seeds were produced and purified. The purified subpopulations were named SS, LL, IISS, and WT. […] The plants were cultured under greenhouse conditions of day and night temperatures of 30 °C and 20 °C (±2 °C), respectively, with a relative humidity of 60% ± 20%, and a 14-h photoperiod, during which LEDs provided light intensity of 300 μmol m^−2 s^−1. After thinning, eight plants per pot were maintained. […] [18]. Thereafter, P450- (10 mM piperonylbutoxide) and GST-inhibitors (3 mM 4-chloro-7-nitro-1, 2, 3-benzoxadiazole) were sprayed to exclude other non-target-site resistance mechanisms. […] Water and inhibitors were applied through control spraying (Supplementary Tables S1 and S3). The fresh weight of the fresh aboveground tissues was measured at 21 DAT. Whole-plant assays were repeated twice in a completely randomised design.
(§6) Data from the whole-plant assays and emerged seedlings were analysed through nonlinear regression using a log-logistic model: y = y0 + a/[1 + (x/x0)^b] in SigmaPlot 12.0 (Systat Software, San Jose, CA, USA).

[5] = biological target: T1, natural (wild type) E. indica EPSPS (EiEPSPS), recombinant expressed in E. coli (Eleusine indica, UniProt Q95AK0); assay: ForteBio Octet binding kinetics, wild type EPSPS
T1 sequence (Q95AK0 43-445): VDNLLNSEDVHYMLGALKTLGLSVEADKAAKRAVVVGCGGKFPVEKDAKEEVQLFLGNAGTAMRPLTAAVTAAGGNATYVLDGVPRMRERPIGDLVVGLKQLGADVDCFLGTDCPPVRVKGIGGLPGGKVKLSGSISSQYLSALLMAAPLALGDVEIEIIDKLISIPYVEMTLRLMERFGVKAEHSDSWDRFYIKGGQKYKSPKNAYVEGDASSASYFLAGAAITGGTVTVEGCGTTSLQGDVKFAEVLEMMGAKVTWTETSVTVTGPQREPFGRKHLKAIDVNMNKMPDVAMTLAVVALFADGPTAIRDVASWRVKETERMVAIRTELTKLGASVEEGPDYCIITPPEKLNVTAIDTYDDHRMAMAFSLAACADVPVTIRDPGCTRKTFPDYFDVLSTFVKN
Experimental: as §1, with “Target proteins were eluted with 50 mM Tris-HCl, 150 mM NaCl, 500 mM imidazole, pH 7.4 (buffer B), resolved through SDS-PAGE, and identified through MALDI-TOF mass spectrometry.” left out
as §2, with “The proteins were biotinylated using the EZ-Link™ Sulfo-NHS-LC-biotinylation kit (21435; Thermo Fisher Scientific Inc.) as described by the manufacturer.” left out, “method. […]” for “method.”
(§7) Data for protein-small molecule binding studies and curve fitting were analysed using ForteBio Data Analysis Software v. […]

[6] = test system: E. indica SS population (homozygous P106S in EPSPS); assay: Whole-plant dose-response assay, SS population; type: in vivo, Eleusine indica; conditions: glyphosate alone, fresh weight at 21 DAT, value ± SE
Experimental: as §5, §6

[7] = test system: E. indica IISS population (homozygous TIPS in EPSPS); assay: Whole-plant dose-response assay, IISS population; type: in vivo, Eleusine indica; conditions: glyphosate alone, fresh weight at 21 DAT, value ± SE
Experimental: as §5, §6

[8] = biological target: T2, His-tagged recombinant EiEPSPS, Thr102Ile + Pro106Ser (IISS) (Eleusine indica, UniProt Q95AK0, P107S/T103I); assay: EPSPS Michaelis-Menten kinetics, Thr102Ile + Pro106Ser; type: biochemical; conditions: TIPS mutant vs natural EPSPS
T2 sequence (Q95AK0 43-445 T103I/P107S): T1 sequence (Q95AK0 43-445) with T61I, P65S
Source text: (§8) Figure 2 Characteristics of EPSPS with different mutations (WT, P106S, P106L, and TIPS) from purified enzyme extracts of Escherichia coli variants. […] Reactions were detected as phosphate concentrations based on a standard curve (y = 97.049x − 0.4245, R^2 = 0.99). This experiment was repeated twice with three biological replicates.
as §1, with “The suspension was sonicated and centrifuged at 12,000× g for 30 min, the supernatant was filtered through a 0.22 µm membrane and passed through a HiTrap His column (10318950; Cytiva, Global Life Sciences Solutions USA, LLC., Marlborough, MA, USA). Target proteins were eluted with 50 mM Tris-HCl, 150 mM NaCl, 500 mM imidazole, pH 7.4 (buffer B), resolved through SDS-PAGE, and identified through MALDI-TOF mass spectrometry.” left out

[9] = biological target: T3, His-tagged recombinant EiEPSPS, Pro106Ser (SS) (Eleusine indica, UniProt Q95AK0, P107S); assay: EPSPS Michaelis-Menten kinetics, Pro106Ser; type: biochemical; conditions: P106S mutant vs natural EPSPS
T3 sequence (Q95AK0 43-445 P107S): T1 sequence (Q95AK0 43-445) with P65S
Source text: as §8
as §1, with “The suspension was sonicated and centrifuged at 12,000× g for 30 min, the supernatant was filtered through a 0.22 µm membrane and passed through a HiTrap His column (10318950; Cytiva, Global Life Sciences Solutions USA, LLC., Marlborough, MA, USA). Target proteins were eluted with 50 mM Tris-HCl, 150 mM NaCl, 500 mM imidazole, pH 7.4 (buffer B), resolved through SDS-PAGE, and identified through MALDI-TOF mass spectrometry.” left out

[10] = biological target: E. indica EPSPS enzymes (WT, P106L, P106S, TIPS); assay: ForteBio Octet binding, range over the EPSPS enzymes; set-up: species or system Eleusine indica
Experimental: (§9) Target EPSPS genes with different mutations were amplified through PCR using primers (Supplementary Table S4) and the synthesised cDNA, then cloned into the BamHI and HindIII cleavage sites of the pET-28a expression vector (New England Biolabs Inc., Ipswich, MA, USA). After DNA sequencing, the pET-28a plasmid (Thermo Fisher Scientific Inc., Waltham MA, USA) containing the target genes was transformed into BL21 (DE3) cells (Thermo Fisher Scientific Inc.). Selected clones were cultured in Luria-Bertani medium. Cells containing target genes that had grown to an OD600 of 0.5 were induced with […] IPTG (0487; Amresco LLC, Solon, OH, USA) at 37 °C for 4 h. […] Target protein concentrations were determined using the Bradford method (500-0001) with Dye Reagent (both from Bio-Rad Laboratories Inc., Hercules, CA, USA).
To prevent primary amines reducing the biotinylation ratio, the EPSPS and mutations were exchanged with PBS buffer using a PD10 desalting column (17085101; Cytiva, Global Life Sciences Solutions USA, LLC.) as described by the manufacturer. The proteins were then concentrated using an ultrafilter (Merck KGaA, Darmstadt, Germany), then the concentrations were determined, as described above. […]
as §7

[11] = biological target: T4, His-tagged recombinant EiEPSPS, Pro106Leu (LL) (Eleusine indica, UniProt Q95AK0, P107L); assay: EPSPS Michaelis-Menten kinetics, Pro106Leu; type: biochemical; conditions: P106L mutant vs natural EPSPS
T4 sequence (Q95AK0 43-445 P107L): T1 sequence (Q95AK0 43-445) with P65L
Source text: as §8
as §9, with “h. The cells were then pelleted through centrifugation at 10,000× g for 10 min and resuspended in 50 mM Tris-HCl and 150 mM NaCl, pH 7.4 (buffer A).” for “h.”

[12] = pH 7.5, read-out: Kon, association rate constant

E. indica EPSPS Pro106Ser (P106S) mutant, recombinant expressed in E. coli, sequence (Q95AK0 entry or part of it P107S): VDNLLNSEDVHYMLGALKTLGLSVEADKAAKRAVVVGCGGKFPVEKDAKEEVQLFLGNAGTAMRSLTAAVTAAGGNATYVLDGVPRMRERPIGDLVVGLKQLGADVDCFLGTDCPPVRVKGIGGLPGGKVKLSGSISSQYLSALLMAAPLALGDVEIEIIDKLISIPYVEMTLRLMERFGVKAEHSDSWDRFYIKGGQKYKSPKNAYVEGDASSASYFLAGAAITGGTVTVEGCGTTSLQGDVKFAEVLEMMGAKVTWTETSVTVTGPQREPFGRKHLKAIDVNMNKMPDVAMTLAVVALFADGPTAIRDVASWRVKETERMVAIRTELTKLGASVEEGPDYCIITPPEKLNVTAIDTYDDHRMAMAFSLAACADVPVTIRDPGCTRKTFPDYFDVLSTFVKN
E. indica EPSPS Thr102Ile + Pro106Ser (TIPS) mutant, recombinant expressed in E. coli, sequence (Q95AK0 entry or part of it T103I/P107S): as the sequence (Q95AK0 entry or part of it P107S) above, with T61I counted along it
E. indica EPSPS Pro106Leu (P106L) mutant, recombinant expressed in E. coli, sequence (Q95AK0 entry or part of it P107L): as the sequence (Q95AK0 entry or part of it P107S) above, with S65L counted along it

Structure (SMILES) | Kd [1] | Kd [2] | Kd [3] | shikimate accumulation in leaf tissues (wild type (WT) E. indica) | x0, herbicide dose required for 50% plant growth reduction (GR50) [4] | Kd [5] | x0, herbicide dose required for 50% plant growth reduction (GR50) [6] | x0, herbicide dose required for 50% plant growth reduction (GR50) [7] | Km (PEP) fold relative to natural EPSPS [8] | Km (PEP) fold relative to natural EPSPS [9] | kon [1, 12] | kon ([2]; Thr102Ile + Pro106Ser EPSPS, Octet SSA biosensors, HEPES pH 7.5, read-out: Kon, association rate constant) | kon [3, 12] | Kd [10] | Km (PEP) fold relative to natural EPSPS [11] | Kd ([5]; Wild type EPSPS, Octet SSA biosensors, HEPES pH 7.5, read-out: KD, dissociation constant (KD = Koff/Kon)) | kon ([5]; Wild type EPSPS, Octet SSA biosensors, HEPES pH 7.5, read-out: Kon, association rate constant)
O=C(O)CNCP(=O)(O)O [Glyphosate, glyphosate] | 28 µM | 23 µM | 25 µM | 366.4 µg/g | 707.2 ± 122.1 g a.e. ha^-1 | 58 µM | 540.5 ± 25.6 g a.e. ha^-1 | 3272.9 ± 164.1 g a.e. ha^-1 |  |  |  |  |  |  |  |  | 
C=C(OP(=O)(O)O)C(=O)O [PEP, phosphoenolpyruvate] | 1100 µM | 2000 µM | 1200 µM |  |  |  |  |  | 4.1 fold | 0.7 fold | 31.3 M⁻¹ s⁻¹ | 33 M⁻¹ s⁻¹ | 31.8 M⁻¹ s⁻¹ | 1100 to 3100 µM | 2.4 fold | 3100 µM | 8 M⁻¹ s⁻¹

From PMC10179075 (International Journal of Molecular Sciences, 2023)
